Reference: patent US20050234076A1, “Triazolopyrimidines” (priority 2002, published 2005)

Experiment: physchem

Compared with `Fc1cc(C(F)(F)F)cc(F)c1-c1c(Cl)nc2ncnn2c1N1CCCCN1` [Example 68], `Fc1cc(F)c(-c2c(Cl)nc3ncnn3c2N2CCCCN2)c(C(F)(F)F)c1` [Example 67] is lower in chromatographic logP: 3.26 for the first, 3.06 for the second.

`CC1CCON1c1c(-c2c(F)cccc2Cl)c(Cl)nc2ncnn12` (stereo not shown) [Example 42] and `Fc1cccc(Cl)c1-c1c(Cl)nc2ncnn2c1N1OC2CCC1C2` (stereo not shown) [Example 34] are the same in chromatographic logP: 2.74 for the first, 2.74 for the second.

First: CC1CCON1c1c(-c2c(F)cc(F)cc2F)c(Cl)nc2ncnn12 (stereo not shown) [Example 1, 5-chloro-6-(2,4,6-trifluorophenyl)-7-(3-methyl-2-isoxazolidinyl)[1,2,4]triazolo[1,5-a]pyrimidine]
Second: CC1CCCON1c1c(-c2c(F)cc(F)cc2F)c(Cl)nc2ncnn12 (stereo not shown) [Example 35]
The chromatographic logP of the first is lower: 2.76 for the first, 3.23 for the second.

Compared with `Fc1cccc(F)c1-c1c(Cl)nc2ncnn2c1N1CCCCO1` [Example 31], `Fc1cc(F)c(-c2c(Cl)nc3ncnn3c2N2CCCCO2)c(F)c1` [Example 6] is higher in chromatographic logP: 2.68 for the first, 2.92 for the second.

`Fc1cccc(Cl)c1-c1c(Cl)nc2ncnn2c1N1NC2CCC1C2` (stereo not shown) [Example 28] and `Fc1cc(F)c(-c2c(Cl)nc3ncnn3c2N2NC3CCC2C3)c(F)c1` (stereo not shown) [Example 27] are within 0.2 log units of each other in chromatographic logP: 2.59 for the first, 2.65 for the second.

Going from `Fc1ccc(-c2c(Cl)nc3ncnn3c2N2CCCCO2)c(F)c1` [Example 9] to `Fc1ccc(-c2c(Cl)nc3ncnn3c2N2CCCCO2)c(Cl)c1` [Example 8], the chromatographic logP rises from 2.84 to 3.11.

Compared with `Fc1cc(F)c(-c2c(Cl)nc3ncnn3c2N2OC3CCC2C3)c(C(F)(F)F)c1` (stereo not shown) [Example 46], `Fc1cc(F)c(-c2c(Cl)nc3ncnn3c2N2OC3CCC2C3)c(F)c1` (stereo not shown) [Example 18] is lower in chromatographic logP: 3.1 for the first, 2.75 for the second.

First: Clc1ccccc1-c1c(Cl)nc2ncnn2c1N1OC2CCC1C2 (stereo not shown) [Example 33]
Second: Fc1ccc(-c2c(Cl)nc3ncnn3c2N2OC3CCC2C3)c(Cl)c1 (stereo not shown) [Example 44]
The chromatographic logP of the first is lower: 2.69 for the first, 2.89 for the second.

Going from `Clc1ccc(-c2c(Cl)nc3ncnn3c2N2CCCCN2)c(Cl)c1` [Example 69] to `Clc1cccc(Cl)c1-c1c(Cl)nc2ncnn2c1N1CCCCN1` [Example 21], the chromatographic logP falls from 3.22 to 2.88.

First: Fc1cc(F)c(-c2c(Cl)nc3ncnn3c2N2CCC=N2)c(F)c1 [Example 11]
Second: Fc1cc(F)c(-c2c(Cl)nc3ncnn3c2N2CCCCN2)c(F)c1 [Example 10]
The chromatographic logP of the first is lower: 2.34 for the first, 2.68 for the second.

Going from `Fc1cc(F)c(-c2c(Br)nc3ncnn3c2N2CCCCN2)c(F)c1` [Example 24] to `Fc1cccc(F)c1-c1c(Cl)nc2ncnn2c1N1CCCCN1` [Example 63], the chromatographic logP falls from 2.73 to 2.47.

First: CC1C=CCN(c2c(-c3c(F)cc(F)cc3F)c(Cl)nc3ncnn23)O1 (stereo not shown) [Example 58]
Second: Fc1cc(F)c(-c2c(Cl)nc3ncnn3c2N2Cc3ccccc3CO2)c(F)c1 [Example 5]
The chromatographic logP of the first is lower: 3.12 for the first, 3.53 for the second.

Compared with `CC1CCCON1c1c(-c2ccccc2Cl)c(Cl)nc2ncnn12` (stereo not shown) [Example 41], `Fc1ccc(-c2c(Cl)nc3ncnn3c2N2OC3CCC2C3)c(F)c1` (stereo not shown) [Example 43] is lower in chromatographic logP: 3.17 for the first, 2.67 for the second.

First: CCOC(=O)N1OCCC1C (stereo not shown) [N-ethoxycarbonyl-3-methylisoxazolidine]
Second: Fc1cccc(Cl)c1-c1c(Cl)nc2ncnn2c1N1CCCCN1 [Example 12]
The chromatographic logP of the first is lower: 1.22 for the first, 2.67 for the second.
